According to patent US20110190267A1, “PRODRUGS OF OPIOIDS AND USES THEREOF” (priority 2010, published 2011):
“And” between values parts separate entries of the source, which are not always exact repeats. Equal entries are not always repeated.

Legend:
[1] = Pharmacokinetics of meptazinol or meptazinol PABA carbamate, monkeys (Example 29); format: in vivo, monkey; details: for AUC / C0 / t½ / Cmax / T>50%Cmax / Tmax / half-life: meptazinol in plasma; for Fabs: meptazinol; for Vd: read-out: Vss; for half-life: read-out: t½ (converted)
From the text: The results are given in Tables 15 to 18 and shown graphically in FIG. 4.

[2] = Pharmacokinetics of meptazinol or meptazinol PABA carbamate, rats (Example 30); details: for Fabs: meptazinol; for clearance: CL; for Vd: Vss
Protocol: Blood samples were taken at various times after administration and submitted to analysis for the parent drug and pro-drug using a validated LC-MS-MS assay. Pharmacokinetic parameters derived from the plasma analytical data were determined using Win Nonlin.

[3] = Pharmacokinetics of meptazinol or meptazinol PABA carbamate, dogs (Example 27); format: in vivo, dog; details: for Vd: read-out: Vss; for Fabs: meptazinol
From the text: The results are given in Tables 8 to 11 and shown graphically in FIG. 2.

[4] = target: T1, Acetylcholinesterase (h), human recombinant (HEK-293 cells) (Homo sapiens, UniProt P22303); assay: Human acetylcholine esterase inhibition (Example 31); format: biochemical; details: AMTCh 50 μM, 30 min./37° C., photometry; read-out: apparent IC50
T1 construct: host or cells: HEK-293 cells
Protocol: The results are expressed as a percent of control specific activity ((measured specific activity/control specific activity)×100) obtained in the presence of the test compounds.
The IC50 values (concentration causing a half-maximal inhibition of control specific activity), and Hill coefficients (nh) were determined by non-linear regression analysis of the inhibition curves generated with mean replicate values using hill equation curve fitting (y=d+[(a−d)/(1+(c/c50)^nh)], where y=specific activity, d=minimum specific activity, a=maximum specific activity, c=compound concentration, C50=IC50, and nh=slope factor).
This analysis was performed using software developed at Cerep (Hill software) and validated by comparison with data generated by the commercial software Sigmaplot® 4.0 for Windows®.

[5] = Pharmacokinetics of meptazinol from PABA analogue prodrugs, dogs (Example 26); format: in vivo; details: dog, plasma, po, 1 mg/kg
Protocol: (§1) Blood samples were taken at various times after administration and submitted to analysis for the parent drug and prodrug using a validated LC-MS-MS assay. Pharmacokinetic parameters derived from the plasma analytical data were determined using Win Nonlin.

[6] = Pharmacokinetics of meptazinol from PABA analogue prodrugs, monkeys (Example 26); format: in vivo; details: monkey, plasma, po, 2 mg/kg
Protocol: as §1

[7] = Norbury et al. (1983); cited from earlier work
[8] = iv meptazinol 1 mg free base equivalents/kg, individual animals
[9] = oral meptazinol 10 mg free base equivalents/kg, individual animals
[10] = oral meptazinol 10 mg free base equivalents/kg, mean
[11] = monkey, plasma, iv, 1 mg/kg, iv meptazinol 1 mg free base equivalents/kg, individual animals
[12] = monkey, plasma, iv, 1 mg/kg, iv meptazinol 1 mg free base equivalents/kg, mean
[13] = iv meptazinol 1 mg free base equivalents/kg, rats, individual animals
[14] = meptazinol in plasma, iv meptazinol 1 mg free base equivalents/kg, rats, individual animals
[15] = meptazinol in plasma, oral meptazinol 1 mg free base equivalents/kg, rats, individual animals
[16] = rat, plasma, iv, 1 mg/kg, iv meptazinol 1 mg free base equivalents/kg, rats, individual animals
[17] = rat, plasma, iv, 1 mg/kg, iv meptazinol 1 mg free base equivalents/kg, rats, mean
[18] = dog, plasma, iv, 1 mg/kg, iv meptazinol 1 mg free base equivalents/kg, individual animals
[19] = dog, plasma, iv, 1 mg/kg, iv meptazinol 1 mg free base equivalents/kg, mean
[20] = meptazinol in plasma, oral meptazinol 1 mg free base equivalents/kg, individual animals
[21] = meptazinol in plasma, oral meptazinol 1 mg free base equivalents/kg, mean
[22] = read-out: AUC* (mean ngh/mL), AUC0-t

T1 sequence (P22303 32-614): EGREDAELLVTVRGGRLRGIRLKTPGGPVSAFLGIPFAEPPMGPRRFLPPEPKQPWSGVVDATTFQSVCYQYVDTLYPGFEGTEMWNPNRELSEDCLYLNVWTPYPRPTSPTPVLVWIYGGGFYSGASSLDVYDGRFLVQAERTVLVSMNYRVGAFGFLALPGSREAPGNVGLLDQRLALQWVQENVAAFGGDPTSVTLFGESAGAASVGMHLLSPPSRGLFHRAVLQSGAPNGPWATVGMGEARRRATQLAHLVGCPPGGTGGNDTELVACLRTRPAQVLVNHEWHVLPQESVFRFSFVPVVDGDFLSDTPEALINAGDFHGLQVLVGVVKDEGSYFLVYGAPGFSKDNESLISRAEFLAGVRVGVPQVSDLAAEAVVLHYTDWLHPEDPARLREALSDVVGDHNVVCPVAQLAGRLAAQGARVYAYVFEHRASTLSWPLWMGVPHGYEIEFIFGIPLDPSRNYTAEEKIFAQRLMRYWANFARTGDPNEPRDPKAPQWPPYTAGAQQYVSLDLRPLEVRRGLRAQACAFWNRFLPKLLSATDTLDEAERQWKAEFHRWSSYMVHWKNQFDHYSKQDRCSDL

For CCC1(c2cccc(O)c2)CCCCN(C)C1 (stereo not shown) [meptazinol], the CL [1, 8] was 66.2 mL/min/kg and 73.2 mL/min/kg and 77.3 mL/min/kg and 70.3 mL/min/kg, the Vss [1, 8] was 4.88 L and 4.11 L and 4.96 L and the AUC [1, 8] was 252 ng·h/mL and 228 ng·h/mL and 215 ng·h/mL and 237 ng·h/mL. For the same molecule, the C0 [1, 8] was 334 ng/mL and 226 ng/mL (2×) and 369 ng/mL, the t½ [1, 8] was 49.8 min and 40.8 min and 52.2 min and the AUC [1, 9] was 47.7 ng·h/mL and 37.7 ng·h/mL and 38.2 ng·h/mL and 47.8 ng·h/mL. The Cmax [1, 9] was 18.3 ng/mL and 19.8 ng/mL and 22.5 ng/mL and 19 ng/mL, the “T>50%Cmax” value [1, 9] was 0.9 h and 2.4 h and 1.7 h and 1.4 h and 2.3 h and the Tmax [1, 9] was 120 min and 60 min. The t½ [1, 9] was 48 min and 54 min and 42 min, the “T>50%Cmax” value [1, 10] was 1.7 h and the Fabs [1, 9] was 1.6% (3×) and 2.0% (2×). For the same molecule, the Fabs [1, 10] was 1.8%, the clearance [1, 11] was 73.7 mL/min/kg and the Vd [1, 11] was 4.83 L. For the same molecule, the clearance [1, 12] was 72.2 mL/min/kg, the Vd [1, 12] was 4.72 L and the AUC ([1]; monkey, plasma, iv, 1 mg/kg, iv meptazinol 1 mg free base equivalents/kg, individual animals, read-out: AUC) was 227 ng·h/mL. The C0 ([1]; monkey, plasma, iv, 1 mg/kg, iv meptazinol 1 mg free base equivalents/kg, individual animals, read-out: C0) was 211 ng/mL, the half-life [1, 11] was 48.6 min and the AUC ([1]; monkey, plasma, iv, 1 mg/kg, iv meptazinol 1 mg free base equivalents/kg, mean, read-out: AUC) was 232 ng·h/mL. The C0 ([1]; monkey, plasma, iv, 1 mg/kg, iv meptazinol 1 mg free base equivalents/kg, mean, read-out: C0) was 273 ng/mL, the half-life [1, 12] was 50.4 min and the AUC ([1]; monkey, plasma, po, 10 mg meptazinol free base equivalents/kg, oral meptazinol 10 mg free base equivalents/kg, individual animals, read-out: AUC) was 39.4 ng·h/mL. The Cmax ([1]; monkey, plasma, po, 10 mg meptazinol free base equivalents/kg, oral meptazinol 10 mg free base equivalents/kg, individual animals, read-out: Cmax) was 26.1 ng/mL, the half-life ([1]; monkey, plasma, po, 10 mg meptazinol free base equivalents/kg, oral meptazinol 10 mg free base equivalents/kg, individual animals) was 60 min and the AUC ([1]; monkey, plasma, po, 10 mg meptazinol free base equivalents/kg, oral meptazinol 10 mg free base equivalents/kg, mean, read-out: AUC) was 42.2 ng·h/mL. For the same molecule, the Cmax ([1]; monkey, plasma, po, 10 mg meptazinol free base equivalents/kg, oral meptazinol 10 mg free base equivalents/kg, mean, read-out: Cmax) was 21.1 ng/mL, the half-life ([1]; monkey, plasma, po, 10 mg meptazinol free base equivalents/kg, oral meptazinol 10 mg free base equivalents/kg, mean) was 48 min and the Tmax ([1]; monkey, plasma, po, 10 mg meptazinol free base equivalents/kg, oral meptazinol 10 mg free base equivalents/kg, median value, read-out: Tmax) was 30 min. For the same molecule, the CL [2, 13] was 75.2 mL/min/kg and 88.3 mL/min/kg and 89.3 mL/min/kg and 92.2 mL/min/kg, the Vss [2, 13] was 4.0 L and 5.4 L (2×) and 5.1 L and the AUC [2, 14] was 222 ng·h/mL and 189 ng·h/mL and 187 ng·h/mL and 181 ng·h/mL. The C0 [2, 14] was 246 ng/mL and 259 ng/mL and 267 ng/mL and 244 ng/mL, the t½ [2, 14] was 36 min and 42 min and the “AUC*” value ([2]; meptazinol in plasma, oral meptazinol 1 mg free base equivalents/kg, rats, calculated based on half-life from previous iv study, individual animals) was 3.1 ng·h/mL and 2.8 ng·h/mL and 4.9 ng·h/mL. For the same molecule, the Cmax [2, 15] was 1.12 ng/mL and 1.49 ng/mL and 1.44 ng/mL, the “t½*” value [2, 15] was 54 min and the Fabs ([2]; oral meptazinol 1 mg free base equivalents/kg, rats, individual animals) was 1.6% (2×) and 1.5% and 2.6%. The Fabs ([2]; oral meptazinol 1 mg free base equivalents/kg, rats, mean) was 1.8±0.5% and 1.8%, the AUC ([2]; rat, plasma, iv, 1 mg/kg, AUC, meptazinol in plasma, iv meptazinol 1 mg free base equivalents/kg, rats, individual animals) was 161 ng·h/mL and the AUC ([2]; rat, plasma, iv, 1 mg/kg, AUC, meptazinol in plasma, iv meptazinol 1 mg free base equivalents/kg, rats, mean) was 188 ng·h/mL. For the same molecule, the C0 ([2]; rat, plasma, iv, 1 mg/kg, C0, meptazinol in plasma, iv meptazinol 1 mg free base equivalents/kg, rats, individual animals) was 191 ng/mL, the C0 ([2]; rat, plasma, iv, 1 mg/kg, C0, meptazinol in plasma, iv meptazinol 1 mg free base equivalents/kg, rats, mean) was 241 ng/mL and the clearance [2, 16] was 104 mL/min/kg. It also gave a clearance [2, 17] of 89.7 mL/min/kg, a Vd [2, 16] of 6.8 L and a Vd [2, 17] of 5.3 L. It also gave a half-life ([2]; rat, plasma, iv, 1 mg/kg, t½, meptazinol in plasma, iv meptazinol 1 mg free base equivalents/kg, rats, individual animals) of 48 min, a half-life ([2]; rat, plasma, iv, 1 mg/kg, t½, meptazinol in plasma, iv meptazinol 1 mg free base equivalents/kg, rats, mean) of 42 min and a Tmax ([2]; rat, plasma, po, 1 mg/kg) of 30 min. It also gave an AUC ([2]; rat, plasma, po, 1 mg/kg, AUC*, meptazinol in plasma, oral meptazinol 1 mg free base equivalents/kg, rats, calculated based on half-life from previous iv study, individual animals) of 2.9 ng·h/mL, an AUC ([2]; rat, plasma, po, 1 mg/kg, AUC*, meptazinol in plasma, oral meptazinol 1 mg free base equivalents/kg, rats, calculated based on half-life from previous iv study, mean) of 3.4 ng·h/mL and a Cmax ([2]; rat, plasma, po, 1 mg/kg, Cmax, meptazinol in plasma, oral meptazinol 1 mg free base equivalents/kg, rats, individual animals) of 1.93 ng/mL. It also gave a Cmax ([2]; rat, plasma, po, 1 mg/kg, Cmax, meptazinol in plasma, oral meptazinol 1 mg free base equivalents/kg, rats, mean) of 1.6 ng/mL, a half-life ([2]; rat, plasma, po, 1 mg/kg, t½*, meptazinol in plasma, oral meptazinol 1 mg free base equivalents/kg, rats, mean) of 78 min and a clearance [3, 18] of 67.3 mL/min/kg. The Vd [3, 18] was 4.14 L, the clearance [3, 19] was 62.7 mL/min/kg and the Vd [3, 19] was 3.55 L. For the same molecule, the AUC ([3]; dog, plasma, iv, 1 mg/kg, meptazinol in plasma, iv meptazinol 1 mg free base equivalents/kg, individual animals, read-out: AUC) was 247 ng·h/mL, the AUC ([3]; dog, plasma, iv, 1 mg/kg, meptazinol in plasma, iv meptazinol 1 mg free base equivalents/kg, mean, read-out: AUC) was 269 ng·h/mL and the Cmax ([3]; dog, plasma, po, 1 mg/kg, meptazinol in plasma, oral meptazinol 1 mg free base equivalents/kg, individual animals, read-out: Cmax) was 4.22 ng/mL. For the same molecule, the AUC ([3]; dog, plasma, po, 1 mg/kg, meptazinol in plasma, oral meptazinol 1 mg free base equivalents/kg, mean, read-out: AUC) was 15.6 ng·h/mL, the half-life ([3]; dog, plasma, po, 1 mg/kg, meptazinol in plasma, oral meptazinol 1 mg free base equivalents/kg, mean, read-out: t½ (converted)) was 108 min and the CL [3, 8] was 60.8 mL/min/kg and 57.2 mL/min/kg and 54.5 mL/min/kg and 73.3 mL/min/kg. For the same molecule, the Co ([3]; meptazinol in plasma, iv meptazinol 1 mg free base equivalents/kg, individual animals) was 340 ng/mL and 308 ng/mL and 350 ng/mL and 402 ng/mL and 477 ng/mL, the Co ([3]; meptazinol in plasma, iv meptazinol 1 mg free base equivalents/kg, mean) was 375 ng/mL and the AUC [3, 20] was 15.1 ng · h/mL and 15.8^b ng · h/mL and 23.3 ng · h/mL and 19.6^b ng · h/mL and 8.52 ng · h/mL. For the same molecule, the Cmax [3, 20] was 6.82 ng/mL and 6.79 ng/mL and 5.04 ng/mL and 3.52 ng/mL, the “T>50%Cmax” value [3, 20] was 2.5 h and 1.1 h and 1.9 h and 2.4 h and 1.8 h and the Tmax [3, 20] was 0.5 h and 1 h (2×). For the same molecule, the Cmax [3, 21] was 5.28 ng/mL, the “T>50%Cmax” value [3, 21] was 1.9 h and the Fabs ([3]; oral meptazinol 1 mg free base equivalents/kg, individual animals) was 6.1% and 5.8% and 8.0% and 6.4% and 3.8%. The Fabs ([3]; oral meptazinol 1 mg free base equivalents/kg, mean) was 6.0±2.1% and 6.0%, the IC50 [4] was 1.5 µM and the Cmax [5] was 4 ± 5.5 ng/mL. For the same molecule, the AUC(0-t) [5, 22] was 5.4 ± 5.9 ng·h/mL, the Cmax [6] was 1.3 ± 0.3 ng/mL and the AUC(0-t) [6, 22] was 3.1 ± 0.7 ng·h/mL. For the same molecule, the oral bioavailability [7] was under 10%.
